Measured values reported in publication PMC6600181, “Reversal of MK-801-Induced Disruptions in Social Interactions and Working Memory with Simultaneous Administration of LY487379 and VU152100 in Mice” (International Journal of Molecular Sciences, 2019).

Columns and labels:
MK-801-treated mice [1] = tested on: MK-801-treated mice; set-up: method as in PMID 30054675; conditions: acute MK-801 model; cited from earlier work
MK-801-treated mice [2] = experiment: Novel object recognition test (MK-801-induced disruptions); format: in vivo, mice (male CD1); conditions: for treatment of deficits in novel object recognition induced by prolonged MK-801: compounds acutely 24 h later, 30 min before test, LY487379 0.1, 0.5, 1 mg/kg, VU152100 0.1, 0.25, 1 mg/kg; for prevention of MK-801-induced disruptions in object recognition: acute, 30 min before acute MK-801
Protocol: (§1) Schedules of administration are presented graphically in Figure 1. […] Different vehicles were used throughout the study: (1) 0.9% NaCl, (2) 10% Tween 80 or (3) 10% Tween 80 containing 2% DMSO. Vehicles were administered to all animals (e.g., control mice, MK-801-treated mice) in the same schedule as drugs were administered to the drug-treated appropriate groups of mice.
(§2) Male CD1 mice (Charles River, Germany) weighing 20–25 g at the time of arrival were used in behavioural experiments. Animals were kept in standard laboratory cages T3 (265 × 420 × 180 mm, with an area of 825 cm^2), grouped at 10 mice per cage. Animals were kept under standard laboratory conditions (12:12 light:dark cycle, 21–22 °C) with free access to food and water. Animal welfare has been regularly controlled by a veterinarian and animal welfare committee. After 3–4 weeks of acclimatization and handling, the experiments began. Experimental groups consisted of 8 to 10 animals, depending on the procedure. Drugs were administered intraperitoneally (i.p.) at a volume of 10 mL/kg. Experimental assessments were performed by an observer who was blinded to treatment conditions. All procedures described herein were conducted in accordance with the European Communities Council Directive of 22 September 2010 (2010/63/EU) and Polish legislation acts concerning animal experimentation and were approved by the II Local Ethics Committee by the Institute of Pharmacology, Polish Academy of Sciences in Krakow (18/2019, 21.01.2019).
This procedure was adapted from Nilsson et al. and performed as described in a variety of our previous papers. Habituation, training and test trials were performed in a black plastic rectangular arena (40 × 30 × 35 cm) illuminated with a light intensity of 335 lux. During the habituation trial (2 consecutive days), each animal was allowed to explore the arena for 10 min. The next day, during the training trial (T1), mice were placed in the arena and were presented with two identical objects (red glass cylinder; 6.5 cm in diameter and 4.5 cm high) for 5 min. After 1 h, animals were placed back into the arena for a 5 min test trial, during which one of the previously presented familiar objects was replaced with a novel object (a transparent glass elongated sphere-like object with an orange cap; 5.5 cm in diameter and 8.5 cm high). Time spent exploring (i.e., sniffing or touching) the familiar (Tfamiliar) and novel (Tnovel) objects was measured by a trained observer, and the recognition index [%] was calculated for each mouse [(Tnovel – Tfamiliar)/(Tfamiliar + Tnovel)] * 100.

MK-801-treated mice [3] = tested on: MK-801-treated mice; set-up: method as in PMID 30054675; conditions: acute MK-801 model; cited from earlier work; remark: listed apart in the source
MK-801-treated mice [4] = experiment: Social interaction test (MK-801-induced disruptions); format: in vivo, mice (male CD1); conditions: for treatment of deficits in social interactions induced by prolonged MK-801: compounds acutely 24 h later, 30 min before test, LY487379 0.25, 0.5, 1 mg/kg, VU152100 0.1, 0.25, 5 mg/kg; for prevention of MK-801-induced deficits in social interactions: acute, 30 min before acute MK-801
Protocol: as §1, §2
This procedure was adapted from de Moura Linck et al. and performed as described in our previous papers. Habituation and test trials were performed in a black plastic rectangular arena (40 × 30 × 35 cm) illuminated with a light intensity of 335 lux. During the habituation trial (2 consecutive days), each animal was allowed to explore the arena for 10 min. The test trial was conducted the following day, during which body-weight-matched mice (± 10% difference) from two different cages were placed into the arena for 10 min. Social interactions between the two mice were determined based on the total time spent participating in social behaviours, such as sniffing, genital investigation and chasing.

Row | Structure (SMILES) | sub-effective dose in novel object recognition (MK-801-treated mice [1]) [mg/kg] | treatment of deficits in novel object recognition induced by prolonged MK-801 (MK-801-treated mice [2]; MK-801 0.3 mg/kg for 7 days) | sub-effective dose in social interaction (MK-801-treated mice [3]) [mg/kg] | treatment of deficits in social interactions induced by prolonged MK-801 (MK-801-treated mice [4]; MK-801 0.3 mg/kg for 7 days) | induction of deficits in novel object recognition (MK-801-treated mice [2]; MK-801 0.3 mg/kg for 7 days, observed 24 h after the last administration) | induction of deficits in social interactions (MK-801-treated mice [4]; MK-801 0.3 mg/kg for 7 days, observed 24 h after the last injection) | effect on learning abilities when given alone (MK-801-treated mice [2]; compound alone, without MK-801) | prevention of MK-801-induced disruptions in object recognition (MK-801-treated mice [2]; dose 0.5 mg/kg i.p.) | prevention of MK-801-induced disruptions in object recognition (MK-801-treated mice [2]; doses of 1 and 3 mg/kg i.p.) | effect on social behaviour when given alone (MK-801-treated mice [4]; compound alone, without MK-801) | prevention of MK-801-induced deficits in social interactions (MK-801-treated mice [4]; dose 0.5 mg/kg i.p.) | prevention of MK-801-induced deficits in social interactions (MK-801-treated mice [4]; doses of 1 and 3 mg/kg i.p.)
1 | COc1ccc(CNC(=O)c2sc3nc(C)cc(C)c3c2N)cc1 [VU152100] | 0.25 | treated the MK-801-induced deficits at all administered doses | 0.5 | treated MK-801-induced deficits at all administered doses |  |  |  |  |  |  |  | 
2 | C[C@]12N[C@H](Cc3ccccc31)c1ccccc12 [MK-801] |  |  |  |  | induced deficits in the novel object recognition paradigm | induced deficits in social interactions |  |  |  |  |  | 
3 | COc1ccccc1Oc1ccc(N(Cc2cccnc2)S(=O)(=O)CC(F)(F)F)cc1 [LY487379] |  | treated the MK-801-induced deficits at all administered doses |  | treated MK-801-induced deficits at all administered doses |  |  | no effect on learning abilities | ineffective | prevented MK-801-induced disruptions in object recognition | no effect on social behaviour | ineffective | prevented the MK-801-induced deficits
